pIC50: −log10 of the molar value.
Molecular target: IDO1 (Homo sapiens, UniProt P14902)
Assay: IDO1 Cellular Assay in HeLa Cells Stimulated with IFNγ
Assay type: cell-based
Details: IFNγ 100 ng/mL, 300 uM L-tryptophan, about 48 hours, fluorescence readout, read-out: IDO1 HELA Cell Assay, IC50
Description: Biological Assays IDO1 Cellular Assay in HeLa Cells Stimulated with IFNγ
HeLa cells were cultured in complete HeLa culture medium (90% EMEM, 10% heat-inactivated fetal bovine serum) and expanded to about 1×10^9 cells. The cells were then collected and frozen down at 1×10^7 cells/vial in 1 mL frozen medium (90% complete HeLa culture medium, 10% DMSO).
Compounds to be tested were serially diluted in ten 3-fold steps in DMSO starting from 10 mM DMSO stocks in Echo low volume plate(s). Compound dilutions or DMSO alone were then dispensed from the dilution plate(s) into Greiner black 384-well assay plate(s) (catalog #781086, 50 nL/well) using an Echo 550 acoustic liquid handler (Labcyte).
Frozen HeLa cells were thawed and transferred into HeLa assay medium (99% complete HeLa culture medium, 1% Pen/Strep) with 20 mL medium/vial of cells. The cells were spun down at 250 g in a table top centrifuge for 5 min and suspended in same volume of HeLa assay medium. The cells were then counted and adjusted to a density of 2×10^5 cells/mL in HeLa assay medium. Sterile L-tryptophan were added to the cells with final concentration of 300 uM L-tryptophan. A small aliquot (2 mL/plate) of HeLa cells were set aside and were not treated with IFNγ, to serve as the Max-E control.
HeLa cells with and without IFNγ were dispensed to the respective wells of 384-well assay plates containing the compounds. The plates were incubated for about 48 hours at a 37° C., 5% CO2 incubator. Afterwards, 12 μL of 0.5 M methyl isonipecotate in dimethyl sulfoxide were added into each well and the plates were sealed and incubated at 37° C. without CO2 overnight. The plates were centrifuged for 1 min at 200×g. The resulting fluorescence was measured in a Spectramax plate reader (Molecular Devices) with a 400 nm excitation filter and a 510 nm emission filter.
The fluorescence intensity of each well was corrected for the background observed in wells with non-IFNγ-treated cells and was expressed as a fraction of the intensity observed in wells of IFNγ-treated cells and DMSO only. Potencies were calculated by linear least squares fit to the four parameter logistic IC50 equation.
Compounds disclosed herein generally have IC50 of about 0.1 nM to about 20,000 nM, or more specifically, about 1 nM to about 10,000 nM, or more specifically, about 5 nM to about 5,000 nM, or more specifically, about 10 nM to about 1,000 nM, or still more specifically, about 10 nM to about 500 nM.

Chain of IDO1 (P14902 whole entry): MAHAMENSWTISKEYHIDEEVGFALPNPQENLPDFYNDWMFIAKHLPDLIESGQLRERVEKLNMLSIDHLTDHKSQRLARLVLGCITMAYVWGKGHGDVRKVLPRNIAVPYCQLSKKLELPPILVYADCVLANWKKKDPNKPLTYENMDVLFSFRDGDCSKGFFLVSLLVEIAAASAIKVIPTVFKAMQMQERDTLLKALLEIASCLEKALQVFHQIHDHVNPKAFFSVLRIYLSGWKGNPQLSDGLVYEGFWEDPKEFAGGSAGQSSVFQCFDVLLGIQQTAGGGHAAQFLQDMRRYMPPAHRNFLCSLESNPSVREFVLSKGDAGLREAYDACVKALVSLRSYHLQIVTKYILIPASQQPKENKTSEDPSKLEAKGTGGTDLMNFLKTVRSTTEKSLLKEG

pIC50 | Structure (SMILES)
7.09 | COc1c(F)cc(C2CCN(C(=O)Cn3nc(C(=O)N4C[C@@H](C)O[C@@H](C)C4)c4c3CCC4)CC2)cc1F [Example 134, 1-[4-(3,5-difluoro-4-methoxyphenyl)piperidin-1-yl]-2-{3-[(2R,6S)-2,6-dimethylmorpholine-4-carbonyl]-5,6-dihydrocyclopenta[c]pyrazol-1(4H)-yl}ethan-1-one]
7.01 | C[C@@H]1CN(C(=O)c2nn(CC(=O)N3CCC(c4cc(F)cc(C(F)(F)F)c4)CC3)c3c2CCC3)C[C@H](C)O1 [Example 141, 2-{3-[(2R,6S)-2,6-dimethylmorpholine-4-carbonyl]-5,6-dihydrocyclopenta[c]pyrazol-1(4H)-yl}-1-{4-[3-fluoro-5-(trifluoromethyl)phenyl]piperidin-1-yl}ethan-1-one]
6.63 | C[C@@H]1CN(C(=O)c2nn(CC(=O)N3CCC(c4ccc(F)cc4F)CC3)c3c2CCC3)C[C@H](C)O1 [Example 165, 1-[4-(2,4-difluorophenyl)piperidin-1-yl]-2-{3-[(2R,6S)-2,6-dimethylmorpholine-4-carbonyl]-5,6-dihydrocyclopenta[c]pyrazol-1(4H)-yl}ethan-1-one]
6.77 | C[C@@H]1CN(C(=O)c2nn(CC(=O)N3CCCC(c4ccccc4)CC3)c3c2CCC3)C[C@H](C)O1 (stereo partly drawn) [Example 74, 2-{3-[(2R,6S)-2,6-dimethylmorpholine-4-carbonyl]-5,6-dihydrocyclopenta[c]pyrazol-1(4H)-yl}-1-(4-phenylazepan-1-yl)ethan-1-one]
7.00 | C[C@@H]1CN(C(=O)c2nn(CC(=O)N3CCC(c4ccc(C(F)F)cc4F)CC3)c3c2CCC3)C[C@H](C)O1 [Example 142, 1-{4-[4-(difluoromethyl)-2-fluorophenyl]piperidin-1-yl}-2-{3-[(2R,6S)-2,6-dimethylmorpholine-4-carbonyl]-5,6-dihydrocyclopenta[c]pyrazol-1(4H)-yl}ethan-1-one]
7.28 | Cc1ccc(C2CCN(C(=O)Cn3nc(C(=O)N4C[C@@H](C)O[C@@H](C)C4)c4c3CCC4)CC2)cc1C(F)(F)F [Example 120, 2-{3-[(2R,6S)-2,6-dimethylmorpholine-4-carbonyl]-5,6-dihydrocyclopenta[c]pyrazol-1(4H)-yl}-1-{4-[4-methyl-3-(trifluoromethyl)phenyl]piperidin-1-yl}ethan-1-one]
7.41 | COc1c(F)cc(F)cc1C1CCN(C(=O)Cn2nc(C(=O)N3C[C@@H](C)O[C@@H](C)C3)c3c2CCC3)CC1 [Example 110, 1-[4-(3,5-difluoro-2-methoxyphenyl)piperidin-1-yl]-2-{3-[(2R,6S)-2,6-dimethylmorpholine-4-carbonyl]-5,6-dihydrocyclopenta[c]pyrazol-1(4H)-yl}ethan-1-one]
8.28 | C[C@@H]1CN(C(=O)c2nn(CC(=O)N3CCC(c4cccc5c(F)cccc45)CC3)c3c2CCC3)C[C@H](C)O1 [Example 85, 2-{3-[(2R,6S)-2,6-dimethylmorpholine-4-carbonyl]-5,6-dihydrocyclopenta[c]pyrazol-1(4H)-yl}-1-[4-(5-fluoronaphthalen-1-yl)piperidin-1-yl]ethan-1-one]
7.05 | Cc1cc(C2CCN(C(=O)Cn3nc(C(=O)N4C[C@@H](C)O[C@@H](C)C4)c4c3CCC4)CC2)cc(C)c1F [Example 139, 2-{3-[(2R,6S)-2,6-dimethylmorpholine-4-carbonyl]-5,6-dihydrocyclopenta[c]pyrazol-1(4H)-yl}-1-[4-(4-fluoro-3,5-dimethylphenyl)piperidin-1-yl] ethan-1-one]
7.13 | Cc1ccnc(C2CCN(C(=O)Cn3nc(C(=O)N4C[C@@H](C)O[C@@H](C)C4)c4c3CCC4)CC2)c1C [Example 80, 2-(3-(cis-2,6-dimethylmorpholine-4-carbonyl)-5,6-dihydrocyclopenta[c]pyrazol-1(4H)-yl)-1-(4-(3,4-dimethylpyridin-2-yl)piperidin-1-yl)ethan-1-one]
6.53 | C[C@@H]1CN(C(=O)c2nn(CC(=O)N3CCC(F)(c4ccccc4)CC3)c3c2CCC3)C[C@H](C)O1 [Example 63, 2-[3-[(2R,6S)-2,6-dimethylmorpholine-4-carbonyl]-5,6-dihydro-4H-cyclopenta[c]pyrazol-1-yl]-1-(4-fluoro-4-phenyl-1-piperidyl)ethanone]
7.53 | C[C@@H]1CN(C(=O)c2nn(CC(=O)N3CCC(c4cccc(C5CC5)c4)CC3)c3c2CCC3)C[C@H](C)O1 [Example 103, 1-[4-(3-cyclopropylphenyl)piperidin-1-yl]-2-{3-[(2R,6S)-2,6-dimethylmorpholine-4-carbonyl]-5,6-dihydrocyclopenta[c]pyrazol-1(4H)-yl}ethan-1-one]
7.92 | Cc1ccc(C2CCN(C(=O)Cn3nc(C(=O)N4C[C@@H](C)O[C@@H](C)C4)c4c3CCC4)CC2)cc1F [Example 91, 2-{3-[(2R,6S)-2,6-dimethylmorpholine-4-carbonyl]-5,6-dihydrocyclopenta[c]pyrazol-1(4H)-yl}-1-[4-(3-fluoro-4-methylphenyl)piperidin-1-yl]ethan-1-one]
9.00 | Cc1cccc(C2(F)CCN(C(=O)Cn3nc(C(=O)N4CCC(OCCO)CC4)c4c3C[C@H]3C[C@@H]43)CC2)c1C [Example 8, 1-(4-(2,3-dimethylphenyl)-4-fluoropiperidin-1-yl)-2-((3bR,4aR)-3-(4-(2-hydroxyethoxy)piperidine-1-carbonyl)-3b,4,4a,5-tetrahydro-1H-cyclopropa[3,4]cyclopenta[1,2-c]pyrazol-1-yl)ethanone]
7.11 | C[C@@H]1CN(C(=O)c2nn(CC(=O)N3CCC(c4ccc(C5CC5)cc4)CC3)c3c2CCC3)C[C@H](C)O1 [Example 131, 1-[4-(4-cyclopropylphenyl)piperidin-1-yl]-2-{3-[(2R,6S)-2,6-dimethylmorpholine-4-carbonyl]-5,6-dihydrocyclopenta[c]pyrazol-1(4H)-yl}ethan-1-one]
7.34 | Cc1cccc(C2CCN(C(=O)Cn3nc(C(=O)N4CC[C@@H](O)C4)c4c3CCC4)CC2)c1C [Example 51, (R)-1-(4-(2,3-dimethylphenyl)piperidin-1-yl)-2-(3-(3-hydroxypyrrolidine-1-carbonyl)-5,6-dihydrocyclopenta[c]pyrazol-1(4H)-yl)ethan-1-one]
8.08 | C[C@@H]1CN(C(=O)c2nn(CC(=O)N3CCC(c4cccc5sccc45)CC3)c3c2CCC3)C[C@H](C)O1 [Example 88, 1-[4-(1-benzothiophen-4-yl)piperidin-1-yl]-2-{3-[(2R,6S)-2,6-dimethylmorpholine-4-carbonyl]-5,6-dihydrocyclopenta[c]pyrazol-1(4H)-yl}ethan-1-one]
6.44 | COc1ccc(Cl)cc1C1CCN(C(=O)Cn2nc(C(=O)N3C[C@@H](C)O[C@@H](C)C3)c3c2CCC3)CC1 [Example 170, 1-[4-(5-chloro-2-methoxyphenyl)piperidin-1-yl]-2-{3-[(2R,6S)-2,6-dimethylmorpholine-4-carbonyl]-5,6-dihydrocyclopenta[c]pyrazol-1(4H)-yl}ethan-1-one]
7.40 | Cc1cccc(C2CCN(C(=O)Cn3nc(C(=O)N4CC(C)(O)C4)c4c3CCC4)CC2)c1C [Example 50, 1-(4-(2,3-dimethylphenyl)piperidin-1-yl)-2-(3-(3-hydroxy-3-methylazetidine-1-carbonyl)-5,6-dihydrocyclopenta[c]pyrazol-1(4H)-yl)ethan-1-one]
